Structures can show the parent of a compound that is named as a salt.

Drawing on patent US10011616B2, “Boron-containing small molecules as antiprotozoal1 agents” (MMV MEDICINES FOR MALARIA VENTURE, priority 2015, dated 2018), this text covers IC50 for 20 compounds.

In experiment [1] the test system is 3D7 strain of Plasmodium falciparum. The experiment in a line: In vitro activity against 3D7 strain of Plasmodium falciparum ([3H]-hypoxanthine incorporation assay). Format: cell-based. Particulars: Erythrocyte, 48 h, P. falciparum 3D7 in human erythrocytes, 2 d, growth inhibition, read-out: IC50: 1 Org. Growth P. falciparum 3D7, 2 d (LPS_00570). The protocol:
In Vitro Activity Against Plasmodium falciparum a) Against 3D7 Strain of Plasmodium falciparum Inhibition of 3D7 strain parasites was assessed using the [^3H]-hypoxanthine incorporation assay (Desjardins, et al. Antimicrob. Agents Chemother. 1979, 16, 710-718). Briefly, parasites were cultured in human erythrocytes (from the Spanish Red Cross blood bank) using RPMI-1640 culture media (Gibco) supplemented with 0.5% Albumax II (Invitrogen), 2% D-sucrose (Sigma-Aldrich), 0.3% glutamine (Sigma-Aldrich), and 5 mM hypoxanthine (Sigma-Aldrich). Cultures were maintained at 37° C. at an atmosphere of 5% O2, 5% CO2, and […]. To assess inhibition, asynchronous parasite cultures with 0.5% parasitemia and 2% hematocrit were exposed to 3-fold serial dilutions of test compounds for 24 hours in 96 well plate cultures (Costar #3894). After 24 hours, [^3H]-hypoxanthine was added, plates were incubated for an additional 24 hours, and parasites were harvested on glass fiber filters (Wallac #1450-421) using a cell harvester 96 (TOMTEC, Perkin Elmer). Filters were dried on scintillator sheets (MeltiLex A, PerkinElmer #1450-441) to determine incorporation of [^3H]-hypoxanthine. Radioactivity was measured using a microbeta counter (Perkin Elmer). Data are normalized using the incorporation of the positive control (infected erythrocytes without drug). IC50 values were determined using Excel and Grafit 5 software. Values were determined from at least three independent experiments, and standard deviations were calculated.

The test system of experiment [2] is W2 strain of Plasmodium falciparum. The experiment is described as follows: In vitro activity against W2 strain of Plasmodium falciparum (YOYO-1 flow cytometry). Format: cell-based. Particulars: Erythrocyte, 48 h, P. falciparum W2 in human erythrocytes, 2 d, growth inhibition, read-out: IC50: 1 Org. Growth P. falciparum W2, 2 d (LPS_00451). The procedure:
In Vitro Activity Against Plasmodium falciparum
b) Against W2 Strain of Plasmodium falciparum
W2 strain P. falciparum parasites were cultured in human erythrocytes and RPMI-1640 culture media with either 10% human serum or 0.5% Albumax serum substitute under 3% O2, 5% CO2, and 92% N2. Parasites synchronized to ring stage by treatments with 5% D-sorbitol were cultured with serial dilutions of benzoxaboroles from 5 to 10 mM stocks in 96 well microplate cultures including 200 μL of media/well, 2% hematocrit, and 1% parasitemia. At the completion of 48 h incubations, when untreated cultures contained new rings, parasites were fixed with 2% formaldehyde for 48 h, and 5 μL aliquots were transferred to another 96 well plate containing 150 μL/well of staining solution (100 mM NH4Cl, 0.1% Triton X-100, and 1 nM YOYO-1 in PBS). Parasites per erythrocyte were then determined by flow cytometry from plots of forward scatter against fluorescence (excitation 488 nm, emission 520 nm) using a FacSort flow cytometer (Beckton Dickinson) equipped with an AMS Loader (Cytek Development). All values were normalized to percent control activity, and IC50s were calculated using the Prism 3.0 program (GRAPHPAD Software). Goodness of fit was assessed by R^2 values, and meaningful dose-response curves yielded R^2 values >0.95.
In general terms: Flow cytometry measures light scatter and fluorescence of single cells or particles in a stream.

For the compound `Cc1c(Oc2cnc(C(=O)NC3(CO)CC3)cn2)ccc2c1B(O)OC2` [Example 17, 5-((1-hydroxy-7-methyl-1,3-dihydrobenzo[c][1,2]oxaborol-6-yl)oxy)-N-(1-(hydroxymethyl)cyclopropyl)pyrazine-2-carboxamide], the IC50 in experiment [1] was 1500 nM; in experiment [2], 2010 nM.

On to `CCC[C@H](CO)NC(=O)c1cnc(Oc2ccc3c(c2C)B(O)OC3)cn1` [Example 14, (R)-5-(1-hydroxy-7-methyl-1,3-dihydrobenzo[c][1,2]oxaborol-6-yloxy)-N-(1-hydroxypentan-2-yl)pyrazine-2-carboxamide], for which the IC50 was 201 nM in experiment [1] and 161 nM in experiment [2].

As for `Cc1c(Oc2cnc(C(=O)N[C@@H](C)C(C)(C)O)cn2)ccc2c1B(O)OC2` [Example 47, (S)—N-(3-hydroxy-3-methylbutan-2-yl)-5-(1-hydroxy-7-methyl-1,3-dihydrobenzo[c][1,2]oxaborol-6-yloxy)pyrazine-2-carboxamide], the IC50 in experiment [1] was found to be 327 nM; in experiment [2], 202 nM.

In the case of `Cc1c(Oc2cnc(C(=O)N3CCNC[C@@H]3CO)cn2)ccc2c1B(O)OC2` [Example 51, (R)-(5-(1-hydroxy-7-methyl-1,3-dihydrobenzo[c][1,2]oxaborol-6-yloxy)pyrazin-2-yl) (2-(hydroxymethyl)piperazin-1-yl)methanone Hydrochloric Acid Salt], the figures for the IC50 in experiment [1] and in experiment [2] were 151 nM and 103 nM, respectively.

With `Cc1c(Oc2cnc(C(=O)NC(C)(C)CO)cn2)ccc2c1B(O)OC2` [Example 3, N-(1-hydroxy-2-methylpropan-2-yl)-5-(1-hydroxy-7-methyl-1,3-dihydrobenzo[c][1,2]oxaborol-6-yloxy)pyrazine-2-carboxamide], the IC50 in experiment [1] turned out to be 425 nM; in experiment [2] it was 290 nM.

Turning to `Cc1c(Oc2cnc(C(=O)N3CC(C)(O)C3)cn2)ccc2c1B(O)OC2` [Example 41, (3-hydroxy-3-methylazetidin-1-yl) (5-((1-hydroxy-7-methyl-1,3-dihydrobenzo[c][1,2]oxaborol-6-yl)oxy)pyrazin-2-yl)methanone], the IC50 stood at 70.6 nM in experiment [1] and 32.6 nM in experiment [2].

As for `Cc1c(Oc2cnc(C(=O)N[C@H](CO)C3CC3)cn2)ccc2c1B(O)OC2` [Example 31, (S)—N-(1-cyclopropyl-2-hydroxyethyl)-5-(1-hydroxy-7-methyl-1,3-dihydrobenzo[c][1,2]oxaborol-6-yloxy)pyrazine-2-carboxamide], the IC50 in experiment [1] was 1090 nM; in experiment [2], 643 nM.

For `CCCC[C@H](CO)NC(=O)c1cnc(Oc2ccc3c(c2C)B(O)OC3)cn1` [Example 28, (R)-5-(1-hydroxy-7-methyl-1,3-dihydrobenzo[c][1,2]oxaborol-6-yloxy)-N-(1-hydroxyhexan-2-yl)pyrazine-2-carboxamide], the IC50 in experiment [1] was 215 nM; in experiment [2] it was 84.9 nM.

As to `C=CC(CO)NC(=O)c1cnc(Oc2ccc3c(c2C)B(O)OC3)cn1` (stereo not shown) [Example 20, 5-(1-hydroxy-7-methyl-1,3-dihydrobenzo[c][1,2]oxaborol-6-yloxy)-N-(1-hydroxybut-3-en-2-yl)pyrazine-2-carboxamide], the IC50 in experiment [1] came to 786 nM; in experiment [2], 535 nM.

`Cc1c(Oc2cnc(C(=O)NC(CO)c3ccccc3)cn2)ccc2c1B(O)OC2` (stereo not shown) [Example 16, N-(2-hydroxy-1-phenylethyl)-5-(1-hydroxy-7-methyl-1,3-dihydrobenzo[c][1,2]oxaborol-6-yloxy)pyrazine-2-carboxamide]: the IC50 worked out at 380 nM in experiment [1] and 223 nM in experiment [2].

In the case of `Cc1c(Oc2cnc(C(=O)N[C@@H](CO)CCC(F)(F)F)cn2)ccc2c1B(O)OC2` [Example 37, (R)-5-(1-hydroxy-7-methyl-1,3-dihydrobenzo[c][1,2]oxaborol-6-yloxy)-N-(5,5,5-trifluoro-1-hydroxypentan-2-yl)pyrazine-2-carboxamide], the concentration for half-maximal inhibition (IC50) in experiment [1] was determined as 480 nM; in experiment [2], 230 nM.

Take `Cc1c(Oc2cnc(C(=O)N[C@H](CO)C(C)C)cn2)ccc2c1B(O)OC2` [Example 23, (S)—N-(1-hydroxy-3-methylbutan-2-yl)-5-(1-hydroxy-7-methyl-1,3-dihydrobenzo[c][1,2]oxaborol-6-yloxy)pyrazine-2-carboxamide]: the IC50 in experiment [1] amounted to 1990 nM; in experiment [2] it was 774 nM.

Take `CC[C@H](NC(=O)c1cnc(Oc2ccc3c(c2C)B(O)OC3)cn1)C(C)(C)O` [Example 53, (S)—N-(2-hydroxy-2-methylpentan-3-yl)-5-(1-hydroxy-7-methyl-1,3-dihydrobenzo[c][1,2]oxaborol-6-yloxy)pyrazine-2-carboxamide]: the IC50 turned out to be 829 nM in experiment [1] and 279 nM in experiment [2].

Regarding `Cc1c(Oc2cnc(C(=O)NC(C)CO)cn2)ccc2c1B(O)OC2` (stereo not shown) [Example 5, 5-(1-hydroxy-7-methyl-1,3-dihydrobenzo[c][1,2]oxaborol-6-yloxy)-N-(1-hydroxypropan-2-yl)pyrazine-2-carboxamide], the IC50 turned out to be 317 nM in experiment [1] and 92.3 nM in experiment [2].

As for `Cc1c(Oc2cnc(C(=O)NCC(C)O)cn2)ccc2c1B(O)OC2` (stereo not shown) [Example 9, 5-(1-hydroxy-7-methyl-1,3-dihydrobenzo[c][1,2]oxaborol-6-yloxy)-N-(2-hydroxypropyl)pyrazine-2-carboxamide], the results for the IC50 in experiment [1] and in experiment [2] were 1100 nM and 1280 nM, respectively.

Consider `Cc1c(Oc2cnc(C(=O)N3CCNC[C@H]3CO)cn2)ccc2c1B(O)OC2` [Example 50, (S)-(5-(1-hydroxy-7-methyl-1,3-dihydrobenzo[c][1,2]oxaborol-6-yloxy)pyrazin-2-yl) (2-(hydroxymethyl)piperazin-1-yl)methanone Hydrochloric Acid Salt], for which the values for the IC50 in experiment [1] and in experiment [2] were 171 nM and 98.2 nM, respectively.

Turning to `Cc1c(Oc2cnc(C(=O)N[C@@H](C)CO)cn2)ccc2c1B(O)OC2` [Example 12, (S)-5-(1-hydroxy-7-methyl-1,3-dihydrobenzo[c][1,2]oxaborol-6-yloxy)-N-(1-hydroxypropan-2-yl)pyrazine-2-carboxamide], the half-maximal inhibitory concentration (IC50) was 808 nM in experiment [1] and 844 nM in experiment [2].

Turning to `CSC[C@H](CO)NC(=O)c1cnc(Oc2ccc3c(c2C)B(O)OC3)cn1` [Example 35, (S)—N-(1-hydroxy-3-(methylthio)propan-2-yl)-5-((1-hydroxy-7-methyl-1,3-dihydrobenzo[c][1,2]oxaborol-6-yl)oxy)pyrazine-2-carboxamide], the IC50 in experiment [1] was 73.7 nM; in experiment [2] it was 370 nM.

Regarding `Cc1c(Oc2cnc(C(=O)N3CC(O)(C(F)(F)F)C3)cn2)ccc2c1B(O)OC2` [Example 58, (3-hydroxy-3-(trifluoromethyl)azetidin-1-yl) (5-((1-hydroxy-7-methyl-1,3-dihydrobenzo[c][1,2]oxaborol-6-yl)oxy)pyrazin-2-yl)methanone], the results for the IC50 in experiment [1] and in experiment [2] were 13.9 nM and 6.6 nM, respectively.

As to `Cc1c(Oc2cnc(C(=O)N3CC(O)(C(C)C)C3)cn2)ccc2c1B(O)OC2` [Example 57, (3-hydroxy-3-isopropylazetidin-1-yl) (5-((1-hydroxy-7-methyl-1,3-dihydrobenzo[c][1,2]oxaborol-6-yl)oxy)pyrazin-2-yl)methanone], the values for the IC50 in experiment [1] and in experiment [2] were 369 nM and 40.7 nM, respectively.

The term IC50 denotes the concentration needed to halve the response being measured.
